Assay results as given in patent publication US9963467B2, “Boronic acid derivatives and therapeutic uses thereof” (Rempex Pharmaceuticals, Inc., priority 2014, dated 2018).

Assays:
Type in all cases: in vitro ADME
[1] = Serum stability of prodrugs, human serum; conditions: human serum; prodrug; theoretical initial conc. 20 ug/mL
Protocol: (§1) Prodrug strategy is one of the ways to achieve or increase oral bioavailability for therapeutic drugs. […] After a prodrug molecule is absorbed into systemic circulation, it should be hydrolyzed in the blood in order to release the active form. Hydrolysis of several prodrugs by rat and human serum were evaluated.
(§2) For all stability experiments the test compounds were treated with rat or human serum in Eppendorf tubes. Typically, 992 μl of serum was prewarmed at 37 degrees for 2 minutes and then 8 μl of a compound (at 5 mg/ml, 125×) was added to it to get a final concentration of […] and immediately mixed. Alternatively, serum stability might be tested at 1 mg/ml. […] After vortexing for 30 seconds, the tube was centrifuged in a microcentrifuge for 10 minutes at 15K rpm. Next, 100 μl of the supernatant was combined with 600 μl of water and injected on LC-MS using 0.1% formic acid in water for mobile phase A and 0.1% formic acid in methanol for mobile phase B on an ACE 5 C18 2.1×100 mm column with a 10 μL injection. The flow rate and gradient were adjusted as needed to give the desired resolution and run time. The pH of the mobile phase was adjusted if needed to improve the chromatography.
(§3) The time course of both the disappearance of a prodrug and the appearance of the active form of that prodrug is presented in Table 6 and Table 7. The active metabolites for all of the listed prodrugs are corresponding parent drugs

[2] = Serum stability of prodrugs, human serum; conditions: theoretical initial conc. 20 ug/mL; for Measured Initial Conc. in Serum: 37 degrees; for Conc. at t = 1 hr: prodrug
[3] = Serum stability of prodrugs, rat serum; conditions: theoretical initial conc. 20 ug/mL; for Measured Initial Conc. in Serum: 37 degrees; for Conc. at t = 1 hr / Conc. at t = 3 hr: prodrug
Protocol: as §1, §2, §3

CCOC(=O)OCOC(=O)c1c(OC)ccc2c1OB(O)[C@@H](NC(=O)CSC)C2 [Compound 41, ethoxycarbonyloxymethyl(3R)-2-hydroxy-7-methoxy-3-[(2-methylsulfanylacetyl)amino]-3,4-dihydro-1,2-benzoxaborinine-8-carboxylate]
Conc. at t = 3 hr [1]: 20900 ng/mL
Measured Initial Conc. in Serum [2]: 24.4 µg/mL
Conc. at t = 1 hr [2]: 20800 ng/mL
Measured Initial Conc. in Serum [3]: 20.6 µg/mL
Conc. at t = 1 hr [3]: 400 ng/mL
Conc. at t = 3 hr [3]: 0 ng/mL

CSCC(=O)N[C@H]1Cc2ccc(F)c(C(=O)OCOC(=O)C(C)C)c2OB1O [Compound 17, (R)-isobutyryloxymethyl 7-fluoro-2-hydroxy-3-(2-(methylthio)acetamido)-3,4-dihydro-2H-benzo[e][1,2]oxaborinine-8-carboxylate]
Conc. at t = 3 hr [1]: 160 ng/mL
Measured Initial Conc. in Serum [2]: 9.74 µg/mL
Conc. at t = 1 hr [2]: 1180 ng/mL
Measured Initial Conc. in Serum [3]: 9.22 µg/mL
Conc. at t = 1 hr [3]: 1350 ng/mL

CSCC(=O)N[C@H]1Cc2cc(Cl)c(F)c(C(=O)OCOC(=O)C(C)C)c2OB1O [Compound 46, 2-methylpropanoyloxymethyl(3R)-6-chloro-7-fluoro-2-hydroxy-3-[(2-methylsulfanylacetyl)amino]-3,4-dihydro-1,2-benzoxaborinine-8-carboxylate]
Conc. at t = 3 hr [1]: 1010 ng/mL
Measured Initial Conc. in Serum [2]: 19.1 µg/mL
Conc. at t = 1 hr [2]: 6220 ng/mL
Measured Initial Conc. in Serum [3]: 18.7 µg/mL
Conc. at t = 1 hr [3]: 8290 ng/mL
Conc. at t = 3 hr [3]: 410 ng/mL

CCC(=O)OCOC(=O)c1c(F)ccc2c1OB(O)[C@@H](NC(=O)CSC)C2 [Compound 16, (R)-propionyloxymethyl 7-fluoro-2-hydroxy-3-(2-(methylthio)acetamido)-3,4-dihydro-2H-benzo[e][1,2]oxaborinine-8-carboxylate]
Conc. at t = 3 hr [1]: 270 ng/mL
Measured Initial Conc. in Serum [2]: 20.7 µg/mL
Conc. at t = 1 hr [2]: 2290 ng/mL
Measured Initial Conc. in Serum [3]: 20.2 µg/mL
Conc. at t = 1 hr [3]: 400 ng/mL
Conc. at t = 3 hr [3]: 0 ng/mL

CSCC(=O)N[C@H]1Cc2cc(F)c(F)c(C(=O)OCOC(=O)C(C)C)c2OB1O [Compound 45, 2-methylpropanoyloxymethyl(3R)-6,7-difluoro-2-hydroxy-3-[(2-methylsulfanylacetyl)amino]-3,4-dihydro-1,2-benzoxaborinine-8-carboxylate]
Conc. at t = 3 hr [1]: 580 ng/mL
Measured Initial Conc. in Serum [2]: 18.4 µg/mL
Conc. at t = 1 hr [2]: 4830 ng/mL
Measured Initial Conc. in Serum [3]: 18.6 µg/mL
Conc. at t = 1 hr [3]: 8850 ng/mL
Conc. at t = 3 hr [3]: 420 ng/mL

COc1ccc2c(c1C(=O)OCOC(=O)C(C)C)OB(O)[C@@H](NC(=O)CSC)C2 [Compound 42, 2-methylpropanoyloxymethyl(3R)-2-hydroxy-7-methoxy-3-[(2-methylsulfanylacetyl)amino]-3,4-dihydro-1,2-benzoxaborinine-8-carboxylate]
Conc. at t = 3 hr [1]: 16500 ng/mL
Measured Initial Conc. in Serum [2]: 23.4 µg/mL
Conc. at t = 1 hr [2]: 19500 ng/mL
Measured Initial Conc. in Serum [3]: 24.2 µg/mL
Conc. at t = 1 hr [3]: 14100 ng/mL
Conc. at t = 3 hr [3]: 5580 ng/mL

CCOC(=O)OCOC(=O)c1c(F)ccc2c1OB(O)[C@@H](NC(=O)CSC)C2 [Compound 19, (R)-(ethoxycarbonyloxy)methyl 7-fluoro-2-hydroxy-3-(2-(methylthio)acetamido)-3,4-dihydro-2H-benzo[e][1,2]oxaborinine-8-carboxylate]
Conc. at t = 3 hr [1]: 1170 ng/mL
Measured Initial Conc. in Serum [2]: 20.3 µg/mL
Conc. at t = 1 hr [2]: 6110 ng/mL
Measured Initial Conc. in Serum [3]: 17.4 µg/mL
Conc. at t = 1 hr [3]: 0 ng/mL
Conc. at t = 3 hr [3]: 0 ng/mL

COc1ccc2c(c1C(=O)OCOC(=O)OC(C)C)OB(O)[C@@H](NC(=O)CSC)C2 [Compound 40, isopropoxycarbonyloxymethyl(3R)-2-hydroxy-7-methoxy-3-[(2-methylsulfanylacetyl)amino]-3,4-dihydro-1,2-benzoxaborinine-8-carboxylate]
Conc. at t = 3 hr [1]: 19000 ng/mL
Measured Initial Conc. in Serum [2]: 24.8 µg/mL
Conc. at t = 1 hr [2]: 23600 ng/mL
Measured Initial Conc. in Serum [3]: 25.9 µg/mL
Conc. at t = 1 hr [3]: 2710 ng/mL
Conc. at t = 3 hr [3]: 740 ng/mL

CSCC(=O)N[C@H]1Cc2ccc(F)c(C(=O)OCOC(=O)c3ccccc3)c2OB1O [Compound 43, benzoyloxymethyl(3R)-7-fluoro-2-hydroxy-3-[(2-methylsulfanylacetyl)amino]-3,4-dihydro-1,2-benzoxaborinine-8-carboxylate]
Conc. at t = 3 hr [1]: 3160 ng/mL
Measured Initial Conc. in Serum [2]: 18.9 µg/mL
Conc. at t = 1 hr [2]: 8940 ng/mL
Measured Initial Conc. in Serum [3]: 18.0 µg/mL
Conc. at t = 1 hr [3]: 11700 ng/mL
Conc. at t = 3 hr [3]: 4580 ng/mL

CSCC(=O)N[C@H]1Cc2ccc(F)c(C(=O)OCOC(=O)C(C)(C)C)c2OB1O [Compound 18, (R)-pivaloyloxymethyl 7-fluoro-2-hydroxy-3-(2-(methylthio)acetamido)-3,4-dihydro-2H-benzo[e][1,2]oxaborinine-8-carboxylate]
Conc. at t = 3 hr [1]: 6270 ng/mL
Measured Initial Conc. in Serum [2]: 16.3 µg/mL
Conc. at t = 1 hr [2]: 11600 ng/mL
Measured Initial Conc. in Serum [3]: 14.6 µg/mL
Conc. at t = 1 hr [3]: 9390 ng/mL
Conc. at t = 3 hr [3]: 3290 ng/mL
